From US4371532A, “Malonamidooxadethiacephem compounds” (Shionogi & Co., Ltd., priority 1980, dated 1983)
Values belong to the compound of their own block, whether it stands above or below them.

Experiments:
[1] = system: P. aeruginosa CN-5; test: Protection of mice from infection caused by Pseudomonas aeruginosa CN-5; type: in vivo; details: CN5, ip, inoculation = 7 × 10^3, two subc. inj. (mg/kg each) 1 and 5 hrs after intraperitoneal inoculation
Protocol: Five representative compounds in the preceding examples are assayed for protection of mice from infection caused by Pseudomonas aeruginosa to give the effects as in the following table. | two subc. inj. (given mg/kg each) 1 and 5 | hrs after intraperitoneal inoculation | *inoculation = 7 × 10^3 -

[2] = system: P. aeruginosa PS-24; test: Protection of mice from infection caused by Pseudomonas aeruginosa PS-24; type: in vivo; details: PS24, ip, inoculation = 1 × 10^4, two subc. inj. (mg/kg each) 1 and 5 hrs after intraperitoneal inoculation
Protocol: Five representative compounds in the preceding examples are assayed for protection of mice from infection caused by Pseudomonas aeruginosa to give the effects as in the following table. | two subc. inj. (given mg/kg each) 1 and 5 | hrs after intraperitoneal inoculation | **inoculation = 1 × 10^4

[3] = system: Escherichia coli EC-14; test: Minimal inhibitory concentration in vitro by serial dilution method on Mueller Hinton agar; type: cell-based; details: disodium salts (10), E. coli EC-14, Mueller Hinton agar

Structure (SMILES): COC1(NC(=O)C(C)C(=O)O)C(=O)N2C(C(=O)O)=C(CSc3nnnn3C)COC21 (centres unmarked) [compound 1]
- ED50 [1]: 22.3 mg/kg
- ED50 [2]: 11.1 mg/kg

- MIC ([3]; EC14, Het=Tetr): 0.39 µg/mL
Structure (SMILES): COC1(NC(=O)C(C(=O)O)C(C)C)C(=O)N2C(C(=O)O)=C(CSc3nnnn3C)COC21 (centres unmarked) [Het=Tetr No. 5]

- MIC ([3]; EC14, Het=Tdz): 0.2 µg/mL
Structure (SMILES): CCCC(C(=O)O)C(=O)NC1(OC)C(=O)N2C(C(=O)O)=C(CSc3nncs3)COC21 (centres unmarked) [Het=Tdz No. 3]

- MIC ([3]; EC14, Het=Tetr): 0.2 µg/mL
Structure (SMILES): C=CCC(C(=O)O)C(=O)NC1(OC)C(=O)N2C(C(=O)O)=C(CSc3nnnn3C)COC21 (centres unmarked) [Het=Tetr No. 8]

Structure (SMILES): CCC(C(=O)O)C(=O)NC1(OC)C(=O)N2C(C(=O)O)=C(CSc3nnnn3C)COC21 (centres unmarked) [compound 2]
- ED50 [1]: 22.2 mg/kg
- ED50 [2]: 17.7 mg/kg

Structure (SMILES): CCC(C(=O)O)C(=O)NC1(OC)C(=O)N2C(C(=O)O)=C(CSc3nncs3)COC21 (centres unmarked) [compound 4]
- ED50 [1]: 32.5 mg/kg
- ED50 [2]: 15.5 mg/kg

- MIC ([3]; EC14, Het=Tetr): 1.56 µg/mL
Structure (SMILES): COC1(NC(=O)CC(=O)O)C(=O)N2C(C(=O)O)=C(CSc3nnnn3C)COC21 (centres unmarked) [Het=Tetr No. 1]

- MIC ([3]; EC14, Het=Tdz): 0.39 µg/mL
Structure (SMILES): COC1(NC(=O)C(C)C(=O)O)C(=O)N2C(C(=O)O)=C(CSc3nncs3)COC21 (centres unmarked) [Het=Tdz No. 1]

- MIC ([3]; EC14, Het=Tdz): 0.2 µg/mL
Structure (SMILES): CCC(C(=O)O)C(=O)NC1(OC)C(=O)N2C(C(=O)O)=C(CSc3nncs3)COC21 (centres unmarked) [Het=Tdz No. 2]

- MIC ([3]; EC14, Het=Tetr): 0.2 µg/mL
Structure (SMILES): COC1(NC(=O)C(C)C(=O)O)C(=O)N2C(C(=O)O)=C(CSc3nnnn3C)COC21 (centres unmarked) [Het=Tetr No. 2]

- MIC ([3]; EC14, Het=Tetr): 0.1 µg/mL
Structure (SMILES): CCCC(C(=O)O)C(=O)NC1(OC)C(=O)N2C(C(=O)O)=C(CSc3nnnn3C)COC21 (centres unmarked) [Het=Tetr R=n-C3 H7]

- MIC ([3]; EC14, Het=Tetr): 12.5 µg/mL
Structure (SMILES): CCCCCCC(C(=O)O)C(=O)NC1(OC)C(=O)N2C(C(=O)O)=C(CSc3nnnn3C)COC21 (centres unmarked) [Het=Tetr No. 7]

- MIC ([3]; EC14, Het=Tetr): 0.39 µg/mL
Structure (SMILES): COC1(NC(=O)C(CC(C)C)C(=O)O)C(=O)N2C(C(=O)O)=C(CSc3nnnn3C)COC21 (centres unmarked) [Het=Tetr No. 6]

- MIC ([3]; EC14, Het=Tdz): 0.39 µg/mL
Structure (SMILES): C=CCC(C(=O)O)C(=O)NC1(OC)C(=O)N2C(C(=O)O)=C(CSc3nncs3)COC21 (centres unmarked) [Het=Tdz No. 5]

Structure (SMILES): COC1(NC(=O)C(C)C(=O)O)C(=O)N2C(C(=O)O)=C(CSc3nncs3)COC21 (centres unmarked) [compound 3]
- ED50 [1]: 33.8 mg/kg
- ED50 [2]: 12.6 mg/kg

- MIC ([3]; EC14, Het=Tetr): 0.1 µg/mL
Structure (SMILES): CCC(C(=O)O)C(=O)NC1(OC)C(=O)N2C(C(=O)O)=C(CSc3nnnn3C)COC21 (centres unmarked) [Het=Tetr No. 3]

- MIC ([3]; EC14, Het=Tdz): 0.39 µg/mL
Structure (SMILES): CCCCC(C(=O)O)C(=O)NC1(OC)C(=O)N2C(C(=O)O)=C(CSc3nncs3)COC21 (centres unmarked) [Het=Tdz No. 4]

Structure (SMILES): COC1(NC(=O)C(C(=O)O)c2ccc(O)cc2)C(=O)N2C(C(=O)O)=C(CSc3nnnn3C)COC21 (centres unmarked) [Reference, reference compound]
- ED50 [1]: 44.5 mg/kg
- ED50 [2]: 20.4 mg/kg
